From patent publication US11136313B2, “Compounds, compositions, and methods for modulating CFTR” (Proteostasis Therapeutics, Inc., priority 2015, dated 2021) come the findings set out here.

The target of the assay is T1, ΔF508-CFTR (Homo sapiens, UniProt P13569, DEL508-508).
T1 construct: Primary lung epithelial cells homozygous for the Cystic Fibrosis-causing ΔF508 mutation were differentiated for a minimum of 4 weeks; endogenous in cells; host or cells: primary lung epithelial cells (hBE) homozygous for ΔF508, differentiated at an air-liquid interface
The assay is described as follows: hBE equivalent current (Ieq) assay: AUC of equivalent chloride current after forskolin/VX-770 in primary lung epithelial cells homozygous for ΔF508. The class given is cell-based. To be noted: relative to CFTR amplifier (Compound A)+VX-809 (3 uM), compound at 10 uM and Compound A at 3 uM, 24 h treatment. The essentials: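 Readout is the increase over vehicle in equivalent chloride current AUC from forskolin/VX-770 addition to bumetanide, measured by current clamp at 36 °C after benzamil block of ENaC. Cultures were homozygous ΔF508 primary lung epithelium grown ≥4 weeks at air-liquid interface and exposed basolaterally to compound for 24 h.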

T1 sequence (P13569 with tags, fused parts or gaps DEL508-508): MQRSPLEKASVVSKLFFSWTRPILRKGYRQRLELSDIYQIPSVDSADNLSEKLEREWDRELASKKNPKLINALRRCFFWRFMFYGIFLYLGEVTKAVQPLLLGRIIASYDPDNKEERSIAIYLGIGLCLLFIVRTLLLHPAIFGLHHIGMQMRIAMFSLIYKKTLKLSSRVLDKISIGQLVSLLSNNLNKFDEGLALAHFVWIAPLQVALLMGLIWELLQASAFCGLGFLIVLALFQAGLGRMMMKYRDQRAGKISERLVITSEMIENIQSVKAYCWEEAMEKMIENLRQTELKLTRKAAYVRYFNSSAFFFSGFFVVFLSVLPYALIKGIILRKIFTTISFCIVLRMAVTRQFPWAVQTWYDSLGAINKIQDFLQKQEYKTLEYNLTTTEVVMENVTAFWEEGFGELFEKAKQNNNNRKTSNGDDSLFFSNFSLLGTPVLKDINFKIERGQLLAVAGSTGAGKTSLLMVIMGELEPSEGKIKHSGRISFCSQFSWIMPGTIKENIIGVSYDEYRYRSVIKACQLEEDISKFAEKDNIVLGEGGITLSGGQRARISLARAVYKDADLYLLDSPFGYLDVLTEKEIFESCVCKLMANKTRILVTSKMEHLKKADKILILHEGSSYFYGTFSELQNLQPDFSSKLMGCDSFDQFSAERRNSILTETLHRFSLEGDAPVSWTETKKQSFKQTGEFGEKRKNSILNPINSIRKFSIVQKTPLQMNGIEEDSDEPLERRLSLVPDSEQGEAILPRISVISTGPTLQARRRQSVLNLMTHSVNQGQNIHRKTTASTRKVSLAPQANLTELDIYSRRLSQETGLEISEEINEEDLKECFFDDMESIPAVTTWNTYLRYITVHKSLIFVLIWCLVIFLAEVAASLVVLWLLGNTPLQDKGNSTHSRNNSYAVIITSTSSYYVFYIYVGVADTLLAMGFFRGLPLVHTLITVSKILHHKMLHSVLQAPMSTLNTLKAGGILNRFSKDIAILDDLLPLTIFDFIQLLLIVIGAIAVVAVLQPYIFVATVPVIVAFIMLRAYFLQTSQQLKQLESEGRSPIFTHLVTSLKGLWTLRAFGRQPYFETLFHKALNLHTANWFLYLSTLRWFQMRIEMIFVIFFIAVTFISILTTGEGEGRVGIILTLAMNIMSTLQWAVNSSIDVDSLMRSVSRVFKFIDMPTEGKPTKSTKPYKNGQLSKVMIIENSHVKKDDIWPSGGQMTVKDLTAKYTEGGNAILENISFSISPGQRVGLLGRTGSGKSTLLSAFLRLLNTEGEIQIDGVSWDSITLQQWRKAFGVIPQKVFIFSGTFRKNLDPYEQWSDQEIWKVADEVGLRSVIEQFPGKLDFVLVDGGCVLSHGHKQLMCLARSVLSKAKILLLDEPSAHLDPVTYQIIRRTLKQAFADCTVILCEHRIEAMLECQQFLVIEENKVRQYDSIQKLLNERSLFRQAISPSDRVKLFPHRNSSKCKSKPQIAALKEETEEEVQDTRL

In the case of `Cc1c(-c2cc(C(=O)[O-])c3c(OCc4ccccc4F)ccc(C)c3n2)sc2ccccc12.[Na+]` [Compound 289, Sodium 5-[(2-Fluorophenyl)methoxy]-8-methyl-2-(3-methyl-1-benzothiophen-2-yl)quinoline-4-carboxylate], the Activity result is “++ (activity>50% of CFTR amplifier+VX-809 (3 uM) with compound at 10 uM and Compound A at 3 uM)”.

Turning to `Cc1cc(Cl)cc2cc(C(=O)O)c(-c3cc4ccccc4o3)nc12` [Compound 12, 2-(1-Benzofuran-2-yl)-6-chloro-8-methylquinoline-3-carboxylic Acid], the Activity result is “+ (activity<50% of an CFTR amplifier (Compound A)+VX-809 (3 uM) with compound at 10 uM and Compound A at 3 uM)”.

With `COc1cc(C)c2nc(-c3cc4ccccc4o3)cc(C(=O)O)c2c1` [Compound 11, 2-(1-Benzofuran-2-yl)-6-methoxy-8-methylquinoline-4-carboxylic acid], the Activity entry is “+ (activity<50% of an CFTR amplifier (Compound A)+VX-809 (3 uM) with compound at 10 uM and Compound A at 3 uM)”.

As for `Cc1c(-c2cc(C(=O)[O-])c3c(O[C@H](C)c4ccc(C#N)cc4)ccc(C)c3n2)oc2ccccc12.[Na+]` [Compound 233], the Activity result is “++ (activity>50% of CFTR amplifier+VX-809 (3 uM) with compound at 10 uM and Compound A at 3 uM)”.

As for `Cc1c(-c2cc(C(=O)[O-])c3c(O[C@H](C)c4ccc(S(C)(=O)=O)cc4)ccc(C)c3n2)oc2ccccc12.[Na+]` [Compound 229, Sodium 5-[(1R)-1-(4-methanesulfonylphenyl)ethoxy]-8-methyl-2-(3-methyl-1-benzofuran-2-yl)quinoline-4-carboxylate], the Activity entry is “++ (activity>50% of CFTR amplifier+VX-809 (3 uM) with compound at 10 uM and Compound A at 3 uM)”.

Consider `Cc1c(-c2cc(C(=O)[O-])c3c(O[C@H](C)c4ccc(OC(F)F)cc4)ccc(C)c3n2)oc2ccccc12.[Na+]` [Compound 235], for which the Activity result is “++ (activity>50% of CFTR amplifier+VX-809 (3 uM) with compound at 10 uM and Compound A at 3 uM)”.

`Cc1cc(Cl)cc2c(C(=O)O)cc(-c3cc4ccccc4s3)nc12` [Compound 1]: the Activity result is “+ (activity<50% of an CFTR amplifier (Compound A)+VX-809 (3 uM) with compound at 10 uM and Compound A at 3 uM)”.

As to `Cc1c(-c2cc(C(=O)O)c3c(OC4CCC(c5nnco5)CC4)ccc(C)c3n2)oc2ccccc12` (centres unmarked) [Compound 97, 8-Methyl-2-(3-methyl-1-benzofuran-2-yl)-5-[[4-(1,3,4-oxadiazol-2-yl)cyclohexyl]oxy]quinoline-4-carboxylic acid], the Activity entry was “++ (activity>50% of CFTR amplifier+VX-809 (3 uM) with compound at 10 uM and Compound A at 3 uM)”.

`Cc1ccc(O[C@@H](C)c2ccccc2)c2c(C(=O)[O-])cc(-c3cn4ccccc4n3)nc12.[Na+]` [Compound 203, Sodium 2-[Imidazo[1,2-a]pyridin-2-yl]-8-methyl-5-[(1S)-1-phenylethoxy]quinoline-4-carboxylate]: the Activity entry is “+ (activity<50% of an CFTR amplifier (Compound A)+VX-809 (3 uM) with compound at 10 uM and Compound A at 3 uM)”.

Consider `Cc1c(-c2cc(C(=O)[O-])c3c(O[C@H](CCO)c4ccccc4)ccc(C)c3n2)sc2ccccc12.[Na+]` [Compound 311], for which the Activity result was “++ (activity>50% of CFTR amplifier+VX-809 (3 uM) with compound at 10 uM and Compound A at 3 uM)”.

Turning to `Cc1c(-c2cc(C(=O)O)c3cc(Br)cc(C)c3n2)oc2ccccc12` [Compound 21, 6-bromo-8-methyl-2-(3-methyl-1-benzofuran-2-yl)quinoline-4-carboxylic acid], the Activity result is “++ (activity>50% of CFTR amplifier+VX-809 (3 uM) with compound at 10 uM and Compound A at 3 uM)”.

For `Cc1c(-c2cc(C(=O)O)c3cc(OC(F)(F)F)cc(C)c3n2)oc2ccccc12` [Compound 117, 8-Methyl-2-(3-methyl-1-benzofuran-2-yl)-6-(trifluoromethoxy)quinoline-4-carboxylic acid], the Activity entry was “++ (activity>50% of CFTR amplifier+VX-809 (3 uM) with compound at 10 uM and Compound A at 3 uM)”.

For the compound `Cc1c(-c2cc(C(=O)[O-])c3c(O[C@H]4C[C@H](C5CCOCC5)C4)ccc(C)c3n2)oc2ccccc12.[Na+]` [Compound 350], the Activity result is “++ (activity>50% of CFTR amplifier+VX-809 (3 uM) with compound at 10 uM and Compound A at 3 uM)”.

In the case of `Cc1c(-c2cc(C(=O)O)c3cc(OCC(F)F)cc(C)c3n2)oc2ccccc12` [Compound 119, 6-(2,2-Difluoroethoxy)-8-methyl-2-(3-methyl-1-benzofuran-2-yl)quinoline-4-carboxylic acid], the Activity result is “+ (activity<50% of an CFTR amplifier (Compound A)+VX-809 (3 uM) with compound at 10 uM and Compound A at 3 uM)”.

With `Cc1c(-c2cc(C(=O)[O-])c3c(OCC4CC(C)(C)OC(C)(C)C4)ccc(C)c3n2)sc2ccccc12.[Na+]` [Compound 337], the Activity result is “++ (activity>50% of CFTR amplifier+VX-809 (3 uM) with compound at 10 uM and Compound A at 3 uM)”.

Take `Cc1c(-c2cc(C(=O)[O-])c3c(O[C@@H]4CCC[C@H](c5ccccc5)C4)ccc(C)c3n2)oc2ccccc12.[Na+]` [Compound 300]: the Activity result is “++ (activity>50% of CFTR amplifier+VX-809 (3 uM) with compound at 10 uM and Compound A at 3 uM)”.

Regarding `CCc1ccc(OCc2ccccc2)c2c(C(=O)O)cc(-c3coc4ccccc34)nc12` [Compound 169, 2-(1-Benzofuran-3-yl)-5-(benzyloxy)-8-ethylquinoline-4-carboxylic acid], the Activity entry is “++ (activity>50% of CFTR amplifier+VX-809 (3 uM) with compound at 10 uM and Compound A at 3 uM)”.

With `Cc1c(-c2cc(C(=O)[O-])c3c(O[C@@H](C)c4ccn5nccc5c4)ccc(C)c3n2)oc2ccccc12.[Na+]` [Compound 258, Sodium 8-Methyl-2-((1S)-3-methyl-1-benzofuran-2-yl)-5-(1-[pyrazolo[1,5-a]pyridin-5-yl]ethoxy)quinoline-4-carboxylate], the Activity result was “++ (activity>50% of CFTR amplifier+VX-809 (3 uM) with compound at 10 uM and Compound A at 3 uM)”.

Regarding `Cc1c(-c2cc(C(=O)[O-])c3c(O[C@@H](C)c4ccc(S(C)(=O)=O)cc4)ccc(C)c3n2)oc2ccccc12.[Na+]` [Compound 230, Sodium 5-[(1S)-1-(4-methanesulfonylphenyl)ethoxy]-8-methyl-2-(3-methyl-1-benzofuran-2-yl)quinoline-4-carboxylate], the Activity result is “++ (activity>50% of CFTR amplifier+VX-809 (3 uM) with compound at 10 uM and Compound A at 3 uM)”.

Regarding `CCc1cc(C(C)(C)C)cc2c(C(=O)O)cc(-c3c(C)oc4ccccc34)nc12` [Compound 178, 6-tert-Butyl-8-ethyl-2-(2-methyl-1-benzofuran-3-yl)quinoline-4-carboxylic acid], the Activity result is “++ (activity>50% of CFTR amplifier+VX-809 (3 uM) with compound at 10 uM and Compound A at 3 uM)”.

As to `Cc1c(-c2cc(C(=O)[O-])c3c(OC4CCOCC4)ccc(C)c3n2)oc2ccccc12.[Na+]` [Compound 332], the Activity entry was “++ (activity>50% of CFTR amplifier+VX-809 (3 uM) with compound at 10 uM and Compound A at 3 uM)”.

With `CCc1ccc([S+]([O-])C2CCCCC2)c2c(C(=O)[O-])cc(-c3sc4ccccc4c3C)nc12.[Na+]` (centres unmarked) [Compound 140, Sodium 5-(Cyclohexanesulfinyl)-8-ethyl-2-(3-methyl-1-benzothiophen-2-yl)quinoline-4-carboxylate], the Activity entry is “++ (activity>50% of CFTR amplifier+VX-809 (3 uM) with compound at 10 uM and Compound A at 3 uM)”.

For `Cc1oc2ccccc2c1-c1cc(C(=O)O)c2c(OC(F)F)ccc(C)c2n1` [Compound 123, 5-(Difluoromethoxy)-8-methyl-2-(2-methyl-1-benzofuran-3-yl)quinoline-4-carboxylic acid], the Activity result was “+ (activity<50% of an CFTR amplifier (Compound A)+VX-809 (3 uM) with compound at 10 uM and Compound A at 3 uM)”.

On to `Cc1c(-c2cc(C(=O)O)c3cc(Cl)cc(C)c3n2)oc2ccccc12` [Compound 17, 6-Chloro-8-methyl-2-(3-methylbenzofuran-2-yl)quinoline-4-carboxylic acid], for which the Activity result was “++ (activity>50% of CFTR amplifier+VX-809 (3 uM) with compound at 10 uM and Compound A at 3 uM)”.

Turning to `Cc1c(-c2cc(C(=O)[O-])c3c(O[C@H]4C[C@H](c5ccccc5)C4)ccc(C)c3n2)sc2ccccc12.[Na+]` [Compound 283, Sodium 8-Methyl-2-(3-methyl-1-benzothiophen-2-yl)-5-[(1r,3r)-3-phenylcyclobutoxy]quinoline-4-carboxylate], the Activity result is “++ (activity>50% of CFTR amplifier+VX-809 (3 uM) with compound at 10 uM and Compound A at 3 uM)”.

For `Cc1c(-c2cc(C(=O)O)c3c(O[C@H]4CC[C@H](c5ccccc5)CC4)ccc(C)c3n2)oc2ccccc12` [Compound 76, 8-Methyl-2-(3-methyl-1-benzofuran-2-yl)-5-[[(1r,4r)-4-phenylcyclohexyl]oxy]quinoline-4-carboxylic acid], the Activity result was “++ (activity>50% of CFTR amplifier+VX-809 (3 uM) with compound at 10 uM and Compound A at 3 uM)”.

As to `Cc1c(-c2cc(C(=O)O)c3c(OCc4ccccc4)ccc(F)c3n2)oc2ccccc12` [Compound 110, 5-(Benzyloxy)-8-fluoro-2-(3-methyl-1-benzofuran-2-yl)quinoline-4-carboxylic acid], the Activity result was “++ (activity>50% of CFTR amplifier+VX-809 (3 uM) with compound at 10 uM and Compound A at 3 uM)”.

Take `Cc1c(-c2cc(C(=O)[O-])c3c(O[C@@H]4CCc5ccccc5C4)ccc(C)c3n2)oc2ccccc12.[Na+]` [Compound 249]: the Activity entry was “++ (activity>50% of CFTR amplifier+VX-809 (3 uM) with compound at 10 uM and Compound A at 3 uM)”.

Take `CCc1ccc(OCCc2cccnc2)c2c(C(=O)O)cc(-c3sc4ccccc4c3C)nc12` [Compound 141, 8-Ethyl-2-(3-methyl-1-benzothiophen-2-yl)-5-[2-(pyridin-3-yl)ethoxy]quinoline-4-carboxylic Acid]: the Activity entry is “+ (activity<50% of an CFTR amplifier (Compound A)+VX-809 (3 uM) with compound at 10 uM and Compound A at 3 uM)”.
